Reference: ChEMBL document CHEMBL1201862, “PubChem BioAssay data set” (2004)
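Where inhibition never reached the appropriate level, the endpoint shown equals the highest concentration tested. Otherwise, values were interpolated linearly from a five-concentration, 48-hour dose response in 96-well plates. GI50: concentration for 50% inhibition of growth.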 The source made the active and inactive calls. Rule as the data show it: active = GI50 up to about 1.1 µM and inactive = higher.

Columns and labels:
Experiment in all cases: NCI anticancer screen, dose series, 48 h
M14 = tested on: M14
KM-20L2 = tested on: KM-20L2
NCI-H460 = tested on: NCI-H460
SK-OV-3 = tested on: SK-OV-3
OVCAR-4 = tested on: OVCAR-4
OVCAR-3 = tested on: OVCAR-3
DMS-114 = tested on: DMS-114
SNB-19 = tested on: SNB-19
NCI-H226 = tested on: NCI-H226
SW-620 = tested on: SW-620
HL-60 = tested on: HL-60
SNB-78 = tested on: SNB-78
SK-MEL-28 = tested on: SK-MEL-28
SF-539 = tested on: SF-539
M19-MEL = tested on: M19-MEL
U-251 = tested on: U-251
786-0 = tested on: 786-0
HCC 2998 = tested on: HCC 2998
XF498 = tested on: XF498
HOP-92 = tested on: HOP-92
Malme-3M = tested on: Malme-3M
UACC-62 = tested on: UACC-62
DLD-1 = tested on: DLD-1
DMS-273 = tested on: DMS-273
HT-29 = tested on: HT-29
EKVX = tested on: EKVX
K562 = tested on: K562
SK-MEL-5 = tested on: SK-MEL-5
HCT-116 = tested on: HCT-116
MOLT-4 = tested on: MOLT-4
SF-295 = tested on: SF-295
SF-268 = tested on: SF-268
NCI-H522 = tested on: NCI-H522
ACHN = tested on: ACHN
NCI-H23 = tested on: NCI-H23
CAKI-1 = tested on: CAKI-1
IGROV-1 = tested on: IGROV-1
RPMI-8226 = tested on: RPMI-8226
HCT-15 = tested on: HCT-15
CCRF-CEM = tested on: CCRF-CEM
OVCAR-5 = tested on: OVCAR-5
TK-10 = tested on: TK-10
A549 = tested on: A549
OVCAR-8 = tested on: OVCAR-8
LOX IMVI = tested on: LOX IMVI
COLO 205 = tested on: COLO 205
HOP-62 = tested on: HOP-62
KM12 = tested on: KM12
SK-MEL-2 = tested on: SK-MEL-2
UO-31 = tested on: UO-31
LXFL 529 = tested on: LXFL 529
SN12C = tested on: SN12C
UACC-257 = tested on: UACC-257
SR = tested on: SR
SNB-75 = tested on: SNB-75
A498 = tested on: A498
RXF 393 = tested on: RXF 393
HOP-18 = tested on: HOP-18

CC1(c2ccccc2)CC12C(=O)NC(=O)NC2=O (centres undefined)
GI50 (M14): > 100 µM (inactive)
GI50 (KM-20L2): > 100 µM (inactive)
GI50 (NCI-H460): > 10 µM (inactive)
GI50 (SK-OV-3): > 100 µM (inactive)
GI50 (OVCAR-4): > 100 µM (inactive)
GI50 (OVCAR-3): > 100 µM (inactive)
GI50 (DMS-114): > 100 µM (inactive)
GI50 (SNB-19): > 100 µM (inactive)
GI50 (NCI-H226): > 100 µM (inactive)
GI50 (SW-620): > 100 µM (inactive)
GI50 (HL-60): > 100 µM (inactive)
GI50 (SNB-78): > 100 µM (inactive)
GI50 (SK-MEL-28): > 100 µM (inactive)
GI50 (SF-539): > 100 µM (inactive)
GI50 (M19-MEL): > 100 µM (inactive)
GI50 (U-251): > 100 µM (inactive)
GI50 (786-0): > 100 µM (inactive)
GI50 (HCC 2998): > 100 µM (inactive)
GI50 (XF498): > 100 µM (inactive)
GI50 (HOP-92): > 100 µM (inactive)
GI50 (Malme-3M): > 100 µM (inactive)
GI50 (UACC-62): > 100 µM (inactive)
GI50 (DLD-1): > 100 µM (inactive)
GI50 (DMS-273): > 100 µM (inactive)
GI50 (HT-29): > 100 µM (inactive)
GI50 (EKVX): > 100 µM (inactive)
GI50 (K562): > 100 µM (inactive)
GI50 (SK-MEL-5): > 100 µM (inactive)
GI50 (HCT-116): > 100 µM (inactive)
GI50 (MOLT-4): > 100 µM (inactive)
GI50 (SF-295): > 100 µM (inactive)
GI50 (SF-268): > 100 µM (inactive)
GI50 (NCI-H522): > 100 µM (inactive)
GI50 (ACHN): > 100 µM (inactive)
GI50 (NCI-H23): > 100 µM (inactive)
GI50 (CAKI-1): > 100 µM (inactive)
GI50 (IGROV-1): > 100 µM (inactive)
GI50 (RPMI-8226): > 100 µM (inactive)
GI50 (HCT-15): > 100 µM
GI50 (CCRF-CEM): > 100 µM (inactive)
GI50 (OVCAR-5): > 100 µM (inactive)
GI50 (TK-10): > 100 µM (inactive)
GI50 (A549): > 100 µM (inactive)
GI50 (OVCAR-8): > 100 µM (inactive)
GI50 (LOX IMVI): > 100 µM (inactive)
GI50 (COLO 205): > 100 µM (inactive)
GI50 (HOP-62): > 100 µM (inactive)
GI50 (KM12): > 100 µM (inactive)
GI50 (SK-MEL-2): > 100 µM (inactive)
GI50 (UO-31): > 100 µM (inactive)
GI50 (LXFL 529): > 100 µM (inactive)
GI50 (SN12C): > 100 µM (inactive)
GI50 (UACC-257): > 100 µM (inactive)
GI50 (SR): > 100 µM (inactive)

Nc1nc(N)c(-c2ccccc2)c(C(=O)Nc2ccccc2)n1
GI50 (M14): > 100 µM (inactive)
GI50 (KM-20L2): > 100 µM (inactive)
GI50 (NCI-H460): > 100 µM (inactive)
GI50 (SK-OV-3): > 100 µM (inactive)
GI50 (OVCAR-4): > 100 µM (inactive)
GI50 (OVCAR-3): > 100 µM (inactive)
GI50 (SNB-19): > 100 µM (inactive)
GI50 (NCI-H226): > 100 µM (inactive)
GI50 (SW-620): > 100 µM (inactive)
GI50 (SNB-78): > 100 µM (inactive)
GI50 (SK-MEL-28): > 100 µM (inactive)
GI50 (SF-539): > 100 µM (inactive)
GI50 (M19-MEL): > 100 µM (inactive)
GI50 (U-251): > 100 µM (inactive)
GI50 (786-0): > 100 µM (inactive)
GI50 (XF498): > 100 µM (inactive)
GI50 (HOP-92): > 100 µM (inactive)
GI50 (Malme-3M): > 100 µM (inactive)
GI50 (UACC-62): > 100 µM (inactive)
GI50 (DLD-1): > 100 µM (inactive)
GI50 (SNB-75): > 100 µM (inactive)
GI50 (HT-29): > 100 µM (inactive)
GI50 (EKVX): > 100 µM (inactive)
GI50 (A498): > 100 µM (inactive)
GI50 (K562): > 100 µM (inactive)
GI50 (SK-MEL-5): > 100 µM (inactive)
GI50 (HCT-116): > 100 µM (inactive)
GI50 (MOLT-4): > 100 µM (inactive)
GI50 (SF-268): > 100 µM (inactive)
GI50 (NCI-H522): > 100 µM (inactive)
GI50 (ACHN): > 100 µM (inactive)
GI50 (NCI-H23): > 100 µM (inactive)
GI50 (CAKI-1): > 100 µM (inactive)
GI50 (RXF 393): > 100 µM (inactive)
GI50 (IGROV-1): > 100 µM (inactive)
GI50 (RPMI-8226): > 100 µM (inactive)
GI50 (HCT-15): > 100 µM
GI50 (HOP-18): > 100 µM (inactive)
GI50 (CCRF-CEM): > 100 µM (inactive)
GI50 (OVCAR-5): > 100 µM (inactive)
GI50 (TK-10): > 100 µM (inactive)
GI50 (A549): > 100 µM (inactive)
GI50 (OVCAR-8): > 100 µM (inactive)
GI50 (LOX IMVI): > 100 µM (inactive)
GI50 (COLO 205): > 100 µM (inactive)
GI50 (KM12): > 100 µM (inactive)
GI50 (SK-MEL-2): > 100 µM (inactive)
GI50 (UO-31): > 100 µM (inactive)
GI50 (SN12C): > 100 µM (inactive)
GI50 (UACC-257): > 100 µM (inactive)
